Experimental data: patent US20120226036A1, “S[…] COMPOUND” (UBE INDUSTRIES, LTD., priority 2009, published 2012)

Molecular target: T1, human EP2 receptor (Homo sapiens, UniProt P43116)
T1 construct: host or cells: HEK293
Assay: Measurement of EP2 receptor binding action ([3H]prostaglandin E2 displacement, membrane fraction of HEK293 cells)
Details: tested as active form (R1 = hydroxy group) of the example compound; [3H]prostaglandin E2 10 nM, 60 minutes at 30° C.
Description: Measurement of EP2 receptor binding action was carried out in compliance with the method of Abramovitz et al. (Biochimica et Biophysica Acta, 1483, 285 (2000)). A test compound (a compound wherein R^1 in the compound represented by the formula (I) of the present invention is a hydroxy group) dissolved in dimethylsulfoxide and [^3H]prostaglandin E2 (NET-428, available from PerkinElmer) (final concentration: 10 nM) were added to a buffer solution (10 mM MES-KOH (pH 6.0), 10 mM MgCl2, 1 mM EDTA) in which was suspended 10 μg of a membrane fraction of HEK293 cells expressing human EP2 receptor (ES-562-M, available from Euroscreen) followed by incubating for 60 minutes at 30° C. The membrane fraction was recovered on glass fiber filter paper (GF/B, available from Whatmann) using a cell harvester (M30R, Brandel), and after washing with a buffer solution (10 mM MES-KOH (pH 6.0), 10 mM MgCl2), radioactivity was measured with a liquid scintillation analyzer (2000CA, Packard).
Ki=IC50/(1+([^3H]prostaglandin E2 concentration/Kd))
The dissociation constant (Kd value) was calculated by Scatchard analysis.

T1 sequence (P43116 whole entry): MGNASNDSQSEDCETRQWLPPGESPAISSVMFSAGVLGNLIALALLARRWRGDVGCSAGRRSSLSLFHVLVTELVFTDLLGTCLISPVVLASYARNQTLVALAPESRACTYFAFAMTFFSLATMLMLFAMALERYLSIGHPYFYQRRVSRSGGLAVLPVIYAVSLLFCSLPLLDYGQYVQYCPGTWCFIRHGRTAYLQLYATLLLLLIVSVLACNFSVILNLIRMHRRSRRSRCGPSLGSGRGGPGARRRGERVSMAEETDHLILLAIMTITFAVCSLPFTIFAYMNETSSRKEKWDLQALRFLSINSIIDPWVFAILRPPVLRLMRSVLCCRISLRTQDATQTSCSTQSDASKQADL

| Substance | Ki [nM] |
| --- | --- |
| (5-Phenylpentyl)(6-{(pyridin-2-ylsulfonyl)[4-(thiazol-2-yl)benzyl]aminomethyl}-pyridin-2-ylamino)acetate [Example 1] | 1.9 |
| (2,2,2-Trifluoroethyl)(6-{[4-(pyrazol-1-yl)benzyl](pyridin-3-ylsulfonyl)aminomethyl}-pyridin-2-ylamino)acetate [Example 11] | 13 |
